Experimental data: patent publication US9440950B2, “Arginine methyltransferase inhibitors and uses thereof” (Epizyme, Inc., priority 2013, dated 2016)

Molecular target: T1, human PRMT3 (Homo sapiens, UniProt O60678)
T1 construct: GST-tagged PRMT3; made in house; host or cells: E. coli BL21(DE3) Gold (pGEX-KG)
Test: PRMT3 Biochemical Assay
Details: peptide substrate, 3H-SAM Flashplate assay
Source text: S-adenosylmethionine (SAM), S-adenosylhomocysteine (SAH), bicine, Tween20, dimethylsulfoxide (DMSO), bovine skin gelatin (BSG), isopropyl-P3-D-thiogalactopyranoside (IPTG), and Tris(2-carboxyethyl)phosphine hydrochloride solution (TCEP) were purchased from Sigma-Aldrich at the highest level of purity possible. ^3H-SAM was purchase from American Radiolabeled Chemicals with a specific activity of 80 Ci/mmol. 384-well streptavidin Flashplates were purchased from PerkinElmer.
Peptide containing the classic RMT substrate motif was synthesized with an N-terminal linker-affinity tag motif and a C-terminal amide cap by 21st Century Biochemicals. The peptide was purified by high-performance liquid chromatography (HPLC) to greater than 95% purity and confirmed by liquid chromatography mass spectrometry (LC-MS). The sequence was Biot-Ahx-[…]-amide (SEQ ID NO.:11).
Full-length human PRMT3 (NM_005788.3) isoform 1 transcript clone was amplified from an HEK 293 cDNA library and subcloned into pGEX-KG (GE Life Sciences). The resulting construct encodes an N-terminal GST tag and a thrombin cleavage sequence ([…] […] […] […]) (SEQ ID NO.: 12) fused directly to Cys 2 of PRMT3.
E. coli (BL21(DE3) Gold, Stratagene) made competent by the CaCl2 method were transformed with the PRMT3 construct and ampicillin selection. Protein over-expression was accomplished by growing the PRMT3 expressing E. coli clone and inducing expression with 0.3 mM IPTG at 16° C. The culture was grown for 12 hours, harvested by centrifugation, and stored at −80° C. for purification.
GST-tagged PRMT3 eluted with 25-400 mM phosphate in buffer C. Protein was concentrated and buffer was exchanged to 20 mM Tris, 150 mM NaCl, 5% glycerol, 5 mM β-mercaptoethanol, pH7.8 by ultrafiltration. The purity of recovered protein was 70%.
General Procedure for PRMT3 Enzyme Assays on Peptide Substrates.
The assays were all performed in a buffer consisting of 20 mM Bicine (pH=7.6), 1 mM TCEP, 0.005% BSG, and 0.002% Tween 20, prepared on the day of use. Compounds in 100% DMSO (1 ul) were spotted into a polypropylene 384-well V-bottom plates (Greiner) using a Platemate Plus outfitted with a 384-channel head (Thermo Scientific). DMSO (1 ul) was added to Columns 11, 12, 23, 24, rows A-H for the maximum signal control and 1 ul of SAH, a known product and inhibitor of PRMT3, was added to columns 11, 12, 23, 24, rows I-P for the minimum signal control. A cocktail (40 ul) containing the PRMT3 enzyme was added by Multidrop Combi (Thermo-Fisher). The compounds were allowed to incubate with PRMT3 for 30 min at room temperature, then a cocktail (10 ul) containing SAM and peptide was added to initiate the reaction (final volume=51 ul). The final concentrations of the components were as follows: PRMT3 was 0.5 nM, ^3H-SAM was 100 nM, non-radiolabeled SAM was 1.8 uM, peptide was 330 nM, SAH in the minimum signal control wells was 1 mM, and the DMSO concentration was 2%. The assays were stopped by the addition of potassium chloride (10 ul) to a final concentration of 100 mM. 50 ul of the reaction in the 384-well polypropylene plate was then transferred to a 384-well Flashplate and the biotinylated peptides were allowed to bind to the streptavidin surface for at least 1 hour before being washed once with 0.1% Tween20 in a Biotek ELx405 plate washer. The plates were then read in a PerkinElmer TopCount plate reader to measure the quantity of ^3H-labeled peptide bound to the Flashplate surface, measured as disintegrations per minute (dpm) or alternatively, referred to as counts per minute (cpm).
Where dpm=disintegrations per minute, cmpd=signal in assay well, and min and max are the respective minimum and maximum signal controls.
Where top and bottom are the normally allowed to float, but may be fixed at 100 or 0 respectively in a 3-parameter fit. The Hill Coefficient normally allowed to float but may also be fixed at 1 in a 3-parameter fit. […]

T1 sequence (O60678 with tags, fused parts or gaps): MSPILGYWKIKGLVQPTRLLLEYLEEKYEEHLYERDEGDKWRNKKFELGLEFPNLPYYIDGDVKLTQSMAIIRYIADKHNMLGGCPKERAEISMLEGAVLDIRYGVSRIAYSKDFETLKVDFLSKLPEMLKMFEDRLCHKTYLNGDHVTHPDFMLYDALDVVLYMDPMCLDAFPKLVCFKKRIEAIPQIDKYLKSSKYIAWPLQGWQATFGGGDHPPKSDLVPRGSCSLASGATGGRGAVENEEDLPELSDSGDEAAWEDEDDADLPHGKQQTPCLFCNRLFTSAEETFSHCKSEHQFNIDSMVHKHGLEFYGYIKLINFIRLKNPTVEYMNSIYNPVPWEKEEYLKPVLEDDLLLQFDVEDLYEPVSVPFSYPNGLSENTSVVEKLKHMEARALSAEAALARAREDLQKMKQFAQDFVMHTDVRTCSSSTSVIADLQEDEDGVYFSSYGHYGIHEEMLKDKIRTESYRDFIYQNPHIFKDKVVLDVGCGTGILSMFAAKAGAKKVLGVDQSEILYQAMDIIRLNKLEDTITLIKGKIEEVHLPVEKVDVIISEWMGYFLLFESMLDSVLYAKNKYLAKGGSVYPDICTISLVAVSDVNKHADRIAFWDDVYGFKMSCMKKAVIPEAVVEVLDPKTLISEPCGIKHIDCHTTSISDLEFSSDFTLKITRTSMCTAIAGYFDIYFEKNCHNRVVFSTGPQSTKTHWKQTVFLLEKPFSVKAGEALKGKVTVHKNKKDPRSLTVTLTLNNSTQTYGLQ

IC50 [µM]	Compound
≥ 10	CNCCN(C)Cc1c[nH]nc1-c1ccc(O)nc1 [Compound 2]
3.01 to 10	CN(CCN)Cc1c[nH]nc1-c1ccc(C(F)(F)F)nc1 [Compound 13, N^1-methyl-N^1-((3-(6-(trifluoromethyl)pyridin-3-yl)-1H-pyrazol-4-yl)methyl)ethane-1,2-diamine]
≥ 10	COc1cc(-c2n[nH]cc2CN(C)CCN)ccn1 [Compound 11]
≥ 10	CNCCN(C)Cc1c[nH]nc1-c1ccc(N)nc1 [Compound 3]
3.01 to 10	CN(CCN)Cc1c[nH]nc1-c1cncc(F)c1 [Compound 7]
≥ 10	Cc1ccncc1-c1n[nH]cc1CN(C)CCN [Compound 17]
≥ 10	COc1ccc(-c2n[nH]cc2CN(C)CCN)cn1 [Compound 5]
≥ 10	CN(CCN)Cc1c[nH]nc1-c1cncc(S(C)(=O)=O)c1 [Compound 4]
1.01 to 3	CN(CCN)Cc1c[nH]nc1-c1cncc(Cl)c1 [Compound 19]
≥ 10	Cc1cncc(-c2n[nH]cc2CN(C)CCN)c1 [Compound 6]
≥ 10	COc1ccncc1-c1n[nH]cc1CN(C)CCN [Compound 16]
≥ 10	COc1ncccc1-c1n[nH]cc1CN(C)CCN [Compound 15]
1.01 to 3	CN(CCN)Cc1c[nH]nc1-c1ccncc1 [Compound 9]
≥ 10	COc1ncc(Cl)cc1-c1n[nH]cc1CN(C)CCN [Compound 14]
≥ 10	CN(CCN)Cc1c[nH]nc1-c1cncc(C#N)c1 [Compound 18]
1.01 to 3	Cc1cc(-c2n[nH]cc2CN(C)CCN)cnc1Cl [Compound 10]
≥ 10	CN(CCN)Cc1c[nH]nc1-c1cccnc1 [Compound 8]
≥ 10	COc1cc(-c2n[nH]cc2CN(C)CCN)c(Cl)cn1 [Compound 12]
≥ 10	CNCCN(C)Cc1c[nH]nc1-c1cccnc1 [Compound 1]
